In ChEMBL document CHEMBL1157092, “Jacaranone-derived glucosidic esters from Jacaranda glabra and their activity against Plasmodium falciparum” (J Nat Prod, 2010):
Values after ≈ are worked out from the molar mass of the structure shown.

Assays:
L6 = assay: Cytotoxicity against rat L6 cells after 72 hrs by alamar blue assay; type: cell-based; conditions: L6, 72 h
Plasmodium falciparum = assay: Antiplasmodial activity against chloroquine and pyrimethamine-resistant Plasmodium falciparum K1 infected in human erythrocytes after 48 hrs by [3]H-hypoxanthine incorporation assay; type: functional, organism-based; conditions: K1, 48 h

O=C1C=CC(O)(CC(=O)OC[C@H]2O[C@@H](OC(=O)CC3(O)C=CC(=O)C=C3)[C@H](OC(=O)Cc3ccccc3)[C@@H](OC(=O)Cc3ccccc3)[C@@H]2O)C=C1 [JACAGLABROSIDE A]
IC50 (L6): 8.3 µg/mL (≈ 11.6 µM)
IC50 (Plasmodium falciparum): 1.02 µg/mL (≈ 1.42 µM)

O=C1C=CC(O)(CC(=O)OC[C@H]2O[C@@H](OC(=O)CC3(O)C=CC(=O)C=C3)[C@H](OC(=O)Cc3ccccc3)[C@@H](O)[C@@H]2O)C=C1 [JACAGLABROSIDE B]
IC50 (L6): > 90 µg/mL
IC50 (Plasmodium falciparum): 0.56 µg/mL (≈ 0.936 µM)

O=C1C=CC(O)(CC(=O)OC[C@H]2O[C@@H](OC(=O)CC3(O)C=CC(=O)C=C3)[C@H](OC(=O)Cc3ccc(O)cc3)[C@@H](OC(=O)Cc3ccccc3)[C@@H]2O)C=C1 [JACAGLABROSIDE C]
IC50 (L6): 87 µg/mL (≈ 119 µM)
IC50 (Plasmodium falciparum): 0.56 µg/mL (≈ 0.764 µM)

O=C1C=CC(O)(CC(=O)OC[C@H]2O[C@@H](OC(=O)CC3(O)C=CC(=O)C=C3)[C@H](OC(=O)Cc3ccccc3)[C@@H](OC(=O)Cc3ccc(O)cc3)[C@@H]2O)C=C1 [JACAGLABROSIDE D]
IC50 (L6): 84.8 µg/mL (≈ 116 µM)
IC50 (Plasmodium falciparum): 0.55 µg/mL (≈ 0.751 µM)

COC(=O)CC1(O)C=CC(=O)C=C1 [JACARANONE]
IC50 (L6): 1.06 µg/mL (≈ 5.82 µM)
IC50 (Plasmodium falciparum): 1.32 µg/mL (≈ 7.25 µM)

O=C(O)Cc1ccccc1 [PHENYLACETIC ACID]
IC50 (L6): > 90 µg/mL
IC50 (Plasmodium falciparum): > 5 µg/mL
